DC50, IC50 and GI50 data for twelve compounds are collected here from patent publication US20250092039A1, “GLUTARIMIDE-CONTAINING PAN-KRAS-MUTANT DEGRADER COMPOUNDS AND USES THEREOF” (Tiger Biotherapeutics Inc., priority 2022, published 2025).

Assay [1] addresses KRAS G12V (Homo sapiens (Human), UniProt P01116, G12V). Briefly: KRAS G12V degradation in SW620 cells (Western blot, DC50). Type of assay: cell-based. Particulars: 24 hours. The gist of the method: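 KRAS levels were quantified by fluorescent Western blot as percent of the DMSO control after 24 h of compound exposure at 37° C in homozygous KRAS G12V SW620 cells. A four-parameter variable-slope fit of the dose-response gave the half-maximal degradation concentration.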
In general terms: In western blotting, separated proteins are transferred to a membrane and probed.

Assay [2] deals with KRAS-G12V/RAF1 (Homo sapiens (Human), UniProt P01116, G12V). Briefly: KRAS/RAF1 binding inhibition assay (AlphaScreen). The method in brief:
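IC50 comes from variable-slope nonlinear fits of % inhibition (relative to DMSO) against inhibitor concentration. The AlphaScreen signal tracks the interaction of GppNHp-bound KRAS G12V with the RAF1 RBD after 60 min at 4° C with compound in 2% DMSO final.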

Assay [3] has as its system SW620 cells. Briefly: 3D cell growth inhibition of SW620 cells carrying endogenous KRAS G12V mutation (CellTiter-Glo 3D, GI50). The format is cell-based. Particulars: Homo sapiens, SW-620, 144 h; SW620 cells, 6 days; read-out: SW620 3D cell growth GI50. The method in brief:
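[…], compound exposure lasted 6 days at 37° C, added the day after plating from DMSO stocks over a concentration range. Cells: SW620, KRAS G12V, 3D culture.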
Background: Cellular ATP, detected with luciferase, serves as a proxy for viable cell number.

Chain of KRAS-G12V/RAF1 (P01116-2 other isoform, or with tags, fused parts or gaps G12V): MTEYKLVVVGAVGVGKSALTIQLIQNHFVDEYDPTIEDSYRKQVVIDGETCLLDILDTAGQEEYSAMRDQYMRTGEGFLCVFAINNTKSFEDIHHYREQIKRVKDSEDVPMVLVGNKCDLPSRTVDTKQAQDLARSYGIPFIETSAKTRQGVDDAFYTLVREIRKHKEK
Chain of KRAS G12V (P01116-2 other isoform, or with tags, fused parts or gaps G12V): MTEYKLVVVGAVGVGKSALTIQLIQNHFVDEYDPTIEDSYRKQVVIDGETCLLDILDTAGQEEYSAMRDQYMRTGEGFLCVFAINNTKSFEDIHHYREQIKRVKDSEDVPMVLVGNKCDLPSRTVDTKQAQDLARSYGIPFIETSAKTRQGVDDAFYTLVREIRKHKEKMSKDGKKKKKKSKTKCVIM

As a reminder, the DC50 is the midpoint of the concentration-degradation curve. Lower therefore signals degradation at low concentration. By IC50 is commonly meant the concentration at which inhibition is half-maximal. What is called GI50 is the concentration that inhibits growth by half. `C[C@@]1(O)CCCN(c2nc(OCC3(CN4CC(N5CC(N6CCN(c7ccc8c(c7)CN([C@H]7CCC(=O)NC7=O)C8=O)CC6)C5)C4)CC3)nc3c(F)c(-c4cc(O)cc5ccc(F)c(F)c45)ncc23)C1` [Compound 169, (S)-3-(5-(4-(1′-((1-(((7-(7,8-difluoro-3-hydroxynaphthalen-1-yl)-8-fluoro-4-((R)-3-hydroxy-3-methylpiperidin-1-yl)pyrido[4,3-d]pyrimidin-2-yl)oxy)methyl)cyclopropyl)methyl)-[1,3′-biazetidin]-3-yl)piperazin-1-yl)-1-oxoisoindolin-2-yl)piperidine-2,6-dione] returned a DC50 in assay [1] of more than 100 nM. The IC50 in assay [2] lay within 20 to 200 nM. The GI50 in assay [3] was more than 100 nM.
With `C[C@@]1(O)CCCN(c2nc(OCC3(CN4CCC5(CC4)CC(N4CCN(c6ccc7c(c6)CN([C@H]6CCC(=O)NC6=O)C7=O)CC4)C5)CC3)nc3c(F)c(-c4cc(O)cc5ccc(F)c(F)c45)ncc23)C1` [Compound 170, (S)-3-(5-(4-(7-((1-(((7-(7,8-difluoro-3-hydroxynaphthalen-1-yl)-8-fluoro-4-((R)-3-hydroxy-3-methylpiperidin-1-yl)pyrido[4,3-d]pyrimidin-2-yl)oxy)methyl)cyclopropyl)methyl)-7-azaspiro[3.5]nonan-2-yl)piperazin-1-yl)-1-oxoisoindolin-2-yl)piperidine-2,6-dione], the DC50 in assay [1] lay within 1 to 10 nM. In assay [2], the IC50 is 20 to 200 nM. The GI50 in assay [3] is less than 10 nM.
The corresponding values for `CCc1c(F)ccc2cc(O)cc(-c3ncc4c(N5CCC[C@@](C)(O)C5)nc(OCC5(CN6CCN(C7CCC8(CC7)CCN(c7ccc9c(c7)CN(C7CCC(=O)NC7=O)C9=O)CC8)CC6)CC5)nc4c3F)c12` (stereo partly drawn) [Compound 171, 3-(5-(9-(4-((1-(((7-(8-ethyl-7-fluoro-3-hydroxynaphthalen-1-yl)-8-fluoro-4-((R)-3-hydroxy-3-methylpiperidin-1-yl)pyrido[4,3-d]pyrimidin-2-yl)oxy)methyl)cyclopropyl)methyl)piperazin-1-yl)-3-azaspiro[5.5]undecan-3-yl)-1-oxoisoindolin-2-yl)piperidine-2,6-dione] are more than 100 nM, 20 to 200 nM and 10 to 100 nM.
The corresponding values for `CCc1c(F)ccc2cc(O)cc(-c3ncc4c(N5CCC[C@@](C)(O)C5)nc(OCC5(CN6CC7(CCN(C8CN(c9ccc%10c(c9)CN(C9CCC(=O)NC9=O)C%10=O)C8)CC7)C6)CC5)nc4c3F)c12` (stereo partly drawn) [Compound 172, 3-(5-(3-(2-((1-(((7-(8-ethyl-7-fluoro-3-hydroxynaphthalen-1-yl)-8-fluoro-4-((R)-3-hydroxy-3-methylpiperidin-1-yl)pyrido[4,3-d]pyrimidin-2-yl)oxy)methyl)cyclopropyl)methyl)-2,7-diazaspiro[3.5]nonan-7-yl)azetidin-1-yl)-1-oxoisoindolin-2-yl)piperidine-2,6-dione] are 1 to 10 nM, less than 20 nM and less than 10 nM.
The corresponding values for `CCc1cccc2cc(O)cc(-c3ncc4c(N5CCC[C@@](C)(O)C5)nc(OCC5(CN6CCC7(CC6)CC(F)(CN6CCN(c8ccc9c(c8)CN([C@H]8CCC(=O)NC8=O)C9=O)CC6)C7)CC5)nc4c3F)c12` [Compound 173, (S)-3-(5-(4-((7-((1-(((7-(8-ethyl-3-hydroxynaphthalen-1-yl)-8-fluoro-4-((R)-3-hydroxy-3-methylpiperidin-1-yl)pyrido[4,3-d]pyrimidin-2-yl)oxy)methyl)cyclopropyl)methyl)-2-fluoro-7-azaspiro[3.5]nonan-2-yl)methyl)piperazin-1-yl)-1-oxoisoindolin-2-yl)piperidine-2.6-dione] are less than 1 nM, 20 to 200 nM and less than 10 nM.
The compound `C[C@@]1(O)CCCN(c2nc(OCC3(CN4CCC5(CC4)CC(F)(CN4CCN(c6ccc7c(c6)CN([C@H]6CCC(=O)NC6=O)C7=O)CC4)C5)CC3)nc3c(F)c(-c4cc(O)cc5ccc(F)c(F)c45)ncc23)C1` [Compound 174, (S)-3-(5-(4-((7-((1-(((7-(7,8-difluoro-3-hydroxynaphthalen-1-yl)-8-fluoro-4-((R)-3-hydroxy-3-methylpiperidin-1-yl)pyrido[4,3-d]pyrimidin-2-yl)oxy)methyl)cyclopropyl)methyl)-2-fluoro-7-azaspiro[3.5]nonan-2-yl)methyl)piperazin-1-yl)-1-oxoisoindolin-2-yl)piperidine-2,6-dione] yielded a DC50 in assay [1] of less than 1 nM. Moreover, in assay [2], the IC50 lay in the range of 20 to 200 nM. The GI50 in assay [3] was less than 10 nM.
The corresponding values for `CCc1c(F)ccc2cc(O)cc(-c3ncc4c(N5CCOC[C@@](C)(O)C5)nc(OCC5(CN6CCC7(CC6)CC(F)(CN6CCN(c8ccc9c(c8)CN([C@H]8CCC(=O)NC8=O)C9=O)CC6)C7)CC5)nc4c3F)c12` [Compound 175, (S)-3-(5-(4-((7-((1-(((7-(8-ethyl-7-fluoro-3-hydroxynaphthalen-1-yl)-8-fluoro-4-((S)-6-hydroxy-6-methyl-1,4-oxazepan-4-yl)pyrido[4,3-d]pyrimidin-2-yl)oxy)methyl)cyclopropyl)methyl)-2-fluoro-7-azaspiro[3.5]nonan-2-yl)methyl)piperazin-1-yl)-1-oxoisoindolin-2-yl)piperidine-2,6-dione] are less than 1 nM, less than 20 nM and less than 10 nM.
`CCc1c(F)ccc2cc(O)cc(-c3ncc4c(N5CCC[C@@](C)(O)C5)nc(OCC5(CN6CCC7(CC6)CC(OC6CCN(c8ccc9c(c8)CN(C8CCC(=O)NC8=O)C9=O)CC6)C7)CC5)nc4c3F)c12` (stereo partly drawn) [Compound 176, 3-(5-(4-((7-((1-(((7-(8-ethyl-7-fluoro-3-hydroxynaphthalen-1-yl)-8-fluoro-4-((R)-3-hydroxy-3-methylpiperidin-1-yl)pyrido[4,3-d]pyrimidin-2-yl)oxy)methyl)cyclopropyl)methyl)-7-azaspiro[3.5]nonan-2-yl)oxy)piperidin-1-yl)-1-oxoisoindolin-2-yl)piperidine-2,6-dione]: the DC50 in assay [1] was less than 1 nM. Moreover, in assay [2], the IC50 was in the range of 20 to 200 nM. For the same compound, the GI50 in assay [3] is less than 10 nM.
For `C[C@@]1(O)CCCN(c2nc(OCC3(CN4CC5(CCC(F)(CN6CCN(c7ccc8c(c7)CN([C@H]7CCC(=O)NC7=O)C8=O)CC6)CC5)C4)CC3)nc3c(F)c(-c4cc(O)cc5ccc(F)c(F)c45)ncc23)C1` [Compound 177, (S)-3-(5-(4-((2-((1-(((7-(7,8-difluoro-3-hydroxynaphthalen-1-yl)-8-fluoro-4-((R)-3-hydroxy-3-methylpiperidin-1-yl)pyrido[4,3-d]pyrimidin-2-yl)oxy)methyl)cyclopropyl)methyl)-7-fluoro-2-azaspiro[3.5]nonan-7-yl)methyl)piperazin-1-yl)-1-oxoisoindolin-2-yl)piperidine-2,6-dione] the same measures were more than 100 nM, more than 200 nM and 10 to 100 nM.
For `CCc1c(F)ccc2cc(O)cc(-c3ncc4c(N5CCC[C@@](C)(O)C5)nc(OCC5(CN6CC7(CCC(F)(CN8CCN(c9ccc%10c(c9)CN([C@H]9CCC(=O)NC9=O)C%10=O)CC8)CC7)C6)CC5)nc4c3F)c12` [Compound 178, (S)-3-(5-(4-((2-((1-(((7-(8-ethyl-7-fluoro-3-hydroxynaphthalen-1-yl)-8-fluoro-4-((R)-3-hydroxy-3-methylpiperidin-1-yl)pyrido[4,3-d]pyrimidin-2-yl)oxy)methyl)cyclopropyl)methyl)-7-fluoro-2-azaspiro[3.5]nonan-7-yl)methyl)piperazin-1-yl)-1-oxoisoindolin-2-yl)piperidine-2,6-dione] the same measures were less than 1 nM, 20 to 200 nM and less than 10 nM.
The corresponding values for `CCc1c(F)ccc2cc(O)cc(-c3ncc4c(N5CCC[C@@](C)(O)C5)nc(OCC5(CN6CCC7(CC6)CC(F)(CN6CCN(c8ccc(C(=O)N[C@H]9CCC(=O)NC9=O)c(F)c8)CC6)C7)CC5)nc4c3F)c12` [Compound 180, N-((S)-2,6-dioxopiperidin-3-yl)-4-(4-((7-((1-(((7-(8-ethyl-7-fluoro-3-hydroxynaphthalen-1-yl)-8-fluoro-4-((R)-3-hydroxy-3-methylpiperidin-1-yl)pyrido[4,3-d]pyrimidin-2-yl)oxy)methyl)cyclopropyl)methyl)-2-fluoro-7-azaspiro[3.5]nonan-2-yl)methyl)piperazin-1-yl)-2-fluorobenzamide] are more than 100 nM, 20 to 200 nM and 10 to 100 nM.
The compound `CCc1cccc2cc(O)cc(-c3ncc4c(N5CCC[C@@](C)(O)C5)nc(OCC5(CN6CCC(OC7CC8(CCN(c9ccc%10c(c9)CN(C9CCC(=O)NC9=O)C%10=O)CC8)C7)CC6)CC5)nc4c3F)c12` (stereo partly drawn) [Compound 181, 3-(5-(2-((1-((1-(((7-(8-ethyl-3-hydroxynaphthalen-1-yl)-8-fluoro-4-((R)-3-hydroxy-3-methylpiperidin-1-yl)pyrido[4,3-d]pyrimidin-2-yl)oxy)methyl)cyclopropyl)methyl)piperidin-4-yl)oxy)-7-azaspiro[3.5]nonan-7-yl)-1-oxoisoindolin-2-yl)piperidine-2,6-dione] had a DC50 in assay [1] of less than 1 nM. Also, the IC50 in assay [2] is more than 200 nM. Besides, the GI50 in assay [3] was less than 10 nM.
